Values belong to the molecule of their own block, whether it stands above or below them. The source made the active and inactive calls. Unless noted, no cut-off for these calls is given here.
Assays:
[1] = molecular target: Transitional endoplasmic reticulum ATPase (Homo sapiens, UniProt P55072, C522A); assay: Luminescence counterscreen assay for p97 inhibitors: dose response biochemical high throughput screening assay to identify inhibitors of the C522A mutant p97 ATPase: synthesized compounds. [Related pubchem assays: 1481, 1517, 1551 ]
Chain of Transitional endoplasmic reticulum ATPase (Homo sapiens, UniProt P55072, C522A) (P55072 2-806 C522A limits assumed): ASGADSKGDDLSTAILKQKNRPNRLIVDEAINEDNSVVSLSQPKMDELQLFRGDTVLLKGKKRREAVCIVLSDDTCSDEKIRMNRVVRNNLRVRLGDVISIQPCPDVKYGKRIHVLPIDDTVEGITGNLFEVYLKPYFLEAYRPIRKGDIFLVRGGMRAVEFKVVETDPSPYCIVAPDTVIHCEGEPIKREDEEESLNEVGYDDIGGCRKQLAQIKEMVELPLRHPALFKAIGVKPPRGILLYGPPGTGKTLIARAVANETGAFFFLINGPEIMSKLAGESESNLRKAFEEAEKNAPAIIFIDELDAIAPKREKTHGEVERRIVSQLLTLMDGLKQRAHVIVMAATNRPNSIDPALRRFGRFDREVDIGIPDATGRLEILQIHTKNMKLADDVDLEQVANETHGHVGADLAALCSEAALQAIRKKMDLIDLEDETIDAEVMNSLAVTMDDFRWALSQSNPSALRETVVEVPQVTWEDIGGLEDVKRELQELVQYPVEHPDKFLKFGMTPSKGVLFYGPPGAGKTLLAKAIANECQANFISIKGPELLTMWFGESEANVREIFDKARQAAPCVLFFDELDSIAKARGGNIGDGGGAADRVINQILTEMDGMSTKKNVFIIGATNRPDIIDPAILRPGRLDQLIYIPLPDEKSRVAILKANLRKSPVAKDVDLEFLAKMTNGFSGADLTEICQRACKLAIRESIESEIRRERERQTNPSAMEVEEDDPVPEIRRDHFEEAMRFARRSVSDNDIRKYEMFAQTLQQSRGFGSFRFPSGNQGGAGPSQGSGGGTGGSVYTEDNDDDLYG

[2] = molecular target: Transitional endoplasmic reticulum ATPase (Homo sapiens, UniProt P55072); assay: Luminescence dose response biochemical high throughput screening assay for inhibitors of the p97 ATPase: synthesized compounds. [Related pubchem assays: 1481, 1517 ]
Chain of Transitional endoplasmic reticulum ATPase (Homo sapiens, UniProt P55072) (P55072 whole entry): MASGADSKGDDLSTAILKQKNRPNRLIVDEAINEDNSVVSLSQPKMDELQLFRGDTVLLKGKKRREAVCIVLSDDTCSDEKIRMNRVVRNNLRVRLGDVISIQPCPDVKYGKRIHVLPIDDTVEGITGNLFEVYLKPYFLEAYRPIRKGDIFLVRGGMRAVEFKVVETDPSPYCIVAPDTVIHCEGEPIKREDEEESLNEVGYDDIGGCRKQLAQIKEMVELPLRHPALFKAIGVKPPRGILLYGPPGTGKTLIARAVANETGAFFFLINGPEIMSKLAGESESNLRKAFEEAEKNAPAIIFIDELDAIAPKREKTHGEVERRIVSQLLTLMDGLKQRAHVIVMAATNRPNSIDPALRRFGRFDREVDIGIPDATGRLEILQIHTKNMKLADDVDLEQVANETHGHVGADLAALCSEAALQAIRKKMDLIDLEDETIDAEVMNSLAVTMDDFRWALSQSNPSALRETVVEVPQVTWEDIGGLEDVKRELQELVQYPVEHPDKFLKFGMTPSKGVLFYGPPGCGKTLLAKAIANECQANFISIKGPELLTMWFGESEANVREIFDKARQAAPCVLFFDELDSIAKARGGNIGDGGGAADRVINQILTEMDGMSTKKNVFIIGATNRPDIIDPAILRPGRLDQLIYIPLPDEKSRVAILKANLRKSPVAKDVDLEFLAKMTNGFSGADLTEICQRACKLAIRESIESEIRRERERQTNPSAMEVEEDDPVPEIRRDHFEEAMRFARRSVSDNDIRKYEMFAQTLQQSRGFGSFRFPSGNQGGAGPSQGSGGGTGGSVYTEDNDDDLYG

[3] = viability loss of HPDE-C7K cells – cell-based, fluorescence, HTS, primary screen (AID 431); assay type: functional; settings: Homo sapiens
[4] = HPDE-C7 pancreatic duct cell viability loss – fluorescence, HTS (AID 430); assay type: functional, cell-based; settings: Homo sapiens
Cytochrome P450 2C19 = Cytochrome P450 2C19 (Homo sapiens, UniProt P33261); assay: qHTS Assay for Inhibitors and Substrates of Cytochrome P450 2C19. [Related pubchem assays: 410 ]; assay type: ADME; settings: read-out: Potency
Chain of Cytochrome P450 2C19 (P33261 whole entry): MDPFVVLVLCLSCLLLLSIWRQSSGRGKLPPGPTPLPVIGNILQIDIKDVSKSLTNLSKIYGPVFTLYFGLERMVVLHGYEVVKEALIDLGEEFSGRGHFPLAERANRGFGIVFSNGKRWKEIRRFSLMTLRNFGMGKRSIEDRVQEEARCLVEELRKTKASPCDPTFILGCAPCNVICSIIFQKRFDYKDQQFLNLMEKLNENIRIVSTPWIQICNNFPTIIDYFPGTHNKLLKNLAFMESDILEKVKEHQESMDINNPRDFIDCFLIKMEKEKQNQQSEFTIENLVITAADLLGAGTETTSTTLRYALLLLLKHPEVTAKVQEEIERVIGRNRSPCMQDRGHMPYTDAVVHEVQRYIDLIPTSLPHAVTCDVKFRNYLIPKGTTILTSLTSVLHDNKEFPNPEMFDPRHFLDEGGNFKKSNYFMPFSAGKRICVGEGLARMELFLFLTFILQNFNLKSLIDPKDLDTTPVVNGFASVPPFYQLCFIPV

[5] = molecular target: Muscarinic acetylcholine receptor M1 (Rattus norvegicus, UniProt P08482); assay: concentration-dependent potentiation of ACh at M1 – cell-based, calcium mobilization, CHO-K1, ACh EC20, dose response (AID 2425); assay type: functional
Chain of Muscarinic acetylcholine receptor M1 (P08482 whole entry): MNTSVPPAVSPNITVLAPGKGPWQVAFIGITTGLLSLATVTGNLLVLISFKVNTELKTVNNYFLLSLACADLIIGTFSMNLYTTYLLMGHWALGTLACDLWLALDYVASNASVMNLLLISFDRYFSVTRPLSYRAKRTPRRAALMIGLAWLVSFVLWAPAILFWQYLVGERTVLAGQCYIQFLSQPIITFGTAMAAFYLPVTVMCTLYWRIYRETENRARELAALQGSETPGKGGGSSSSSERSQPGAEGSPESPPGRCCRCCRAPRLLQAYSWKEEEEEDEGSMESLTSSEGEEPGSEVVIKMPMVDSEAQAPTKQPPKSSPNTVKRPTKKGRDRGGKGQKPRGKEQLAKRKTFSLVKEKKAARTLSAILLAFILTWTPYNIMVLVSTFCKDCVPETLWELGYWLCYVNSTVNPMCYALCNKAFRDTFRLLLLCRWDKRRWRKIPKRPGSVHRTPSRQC

IC50 [1]: > 50 µM (not active)
IC50 [2]: > 50 µM (not active)
Structure (SMILES): CCOC(=O)/C(C#N)=C/c1ccc(C#N)cc1

Structure (SMILES): Cc1nc2sccn2c(=O)c1CCN1CCC(=C(c2ccccc2)c2ccc(F)cc2)CC1
EC50 [3]: 17.4 µM (active)
EC50 [4]: 18.3 µM (active)
AC50 (Cytochrome P450 2C19): 15.8 µM (inconclusive)

EC50 [5]: 0.885 µM (active)
Structure (SMILES): Cn1cc(-c2cc(F)c(CN3C(=O)C(=O)c4ccccc43)c(F)c2)cn1
